Data: patent US9988430B2, “Stable GLP-1 based GLP-1/glucagon receptor co-agonists” (Novo Nordisk A/S, priority 2014, dated 2018)
*1 amine or outer side, *2 acyl side, *3 side chain or, on linkers, in order; H or OH if unused. Where a SMILES comes first, the peptide text is derived from it. Bridges are numbered along the chain shown (N, C = ends). Roman numbers before positions name the chains, in order. Side-chain parts run from the residue outwards. [ ]: non-standard residue; d: D form. The star is where a group is joined. C18 diacid = O=C(O)CCCCCCCCCCCCCCCCC(=O)*; γGlu = O=C(O)[C@H](CCC(=O)[*:2])N[*:1]; Desaminohistidyl = O=C(CCc1c[nH]cn1)*; Ac4c = NC1(C(=O)O)CCC1; AEEA = NCCOCCOCC(=O)O; Aib = CC(C)(N)C(=O)O

Molecular target: T1, human GLP-1 receptor (Homo sapiens, UniProt P43220)
T1 construct: expressed in transfected cells; host or cells: membranes of BHK cells, parent line BHKTS13, clone FCW467-12A
Assay: Assay (II)(a): GLP-1 receptor binding, [125I]GLP-1 displacement, SPA on BHK membranes
Conditions: displacement of [125I]GLP-1, membranes with human GLP-1 receptor; read-out: IC50 GLP-1R
How it was run: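 Membranes from BHK cells expressing human GLP-1 receptor with WGA SPA beads, [125I]GLP-1(7-36)NH2 (480 pM added solution) and compound in HEPES pH 7.4 buffer with EGTA, MgCl2, Tween 20. Incubated 2 h at 30° C; SPA counts fitted by non-linear regression to IC50 in nM.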

T1 sequence (P43220 24-463): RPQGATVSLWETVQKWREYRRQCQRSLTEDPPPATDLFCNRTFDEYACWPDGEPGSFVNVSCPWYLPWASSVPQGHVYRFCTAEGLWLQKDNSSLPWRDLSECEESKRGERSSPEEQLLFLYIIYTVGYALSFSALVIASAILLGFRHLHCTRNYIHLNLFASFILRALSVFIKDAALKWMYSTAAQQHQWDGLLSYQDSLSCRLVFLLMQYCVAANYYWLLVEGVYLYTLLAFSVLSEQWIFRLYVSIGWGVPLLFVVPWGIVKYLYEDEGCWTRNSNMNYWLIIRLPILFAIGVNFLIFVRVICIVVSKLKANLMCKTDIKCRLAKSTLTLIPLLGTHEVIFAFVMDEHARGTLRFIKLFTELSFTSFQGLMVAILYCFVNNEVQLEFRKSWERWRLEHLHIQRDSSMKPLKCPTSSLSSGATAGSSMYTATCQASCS

SMILES	IC50 [pM]
CC[C@H](C)[C@H](NC(=O)[C@H](Cc1ccccc1)NC(=O)[C@H](CCC(=O)O)NC(=O)[C@H](CCCNC(=N)N)NC(=O)[C@H](C)NC(=O)[C@H](C)NC(=O)[C@H](CCCNC(=N)N)NC(=O)[C@H](C)NC(=O)[C@H](CCC(=O)O)NC(=O)[C@H](CC(C)C)NC(=O)[C@H](Cc1ccc(O)cc1)NC(=O)[C@H](CCCCN)NC(=O)[C@H](CO)NC(=O)[C@@H](NC(=O)[C@H](CC(=O)O)NC(=O)[C@H](CO)NC(=O)[C@@H](NC(=O)[C@H](Cc1ccccc1)NC(=O)[C@@H](NC(=O)CNC(=O)[C@H](Cc1c[nH]cn1)NC(=O)C(C)(C)NC(=O)CCc1c[nH]cn1)[C@@H](C)O)[C@@H](C)O)C(C)C)C(=O)N[C@@H](C)C(=O)N[C@@H](Cc1c[nH]c2ccccc12)C(=O)N[C@@H](CC(C)C)C(=O)N[C@@H](CC(C)C)C(=O)N[C@@H](CCCCNC(=O)CC[C@H](NC(=O)COCCOCCNC(=O)COCCOCCNC(=O)CC[C@H](NC(=O)CC[C@H](NC(=O)CCCCCCCCCCCCCCCCC(=O)O)C(=O)O)C(=O)O)C(=O)O)C(=O)NCC(=O)NCC(=O)NCC(=O)O [Example 31, N^ε34-[(4S)-4-carboxy-4-[[2-[2-[2-[[2-[2-[2-[[(4S)-4-carboxy-4-[[(4S)-4-carboxy-4-(17-carboxyheptadecanoylamino)butanoyl]amino]butanoyl]amino]ethoxy]ethoxy]acetyl]amino]ethoxy]ethoxy]acetyl]amino]butanoyl]-[Imp7,Aib8,His9,Lys18,Ala22,Arg23,Arg26,Leu33,Gly36]-GLP-1-(7-37)-peptide] (Desaminohistidyl-[Aib]HGTFTSDVSKYLEARAAREFIAWLLK([γGlu-AEEA-AEEA-γGlu-γGlu-C18 diacid])GGG-OH)	300
CC[C@H](C)[C@H](NC(=O)[C@H](Cc1ccccc1)NC(=O)[C@H](CCC(=O)O)NC(=O)[C@H](CCCNC(=N)N)NC(=O)[C@H](C)NC(=O)[C@H](C)NC(=O)[C@H](CCC(N)=O)NC(=O)[C@H](CCC(=O)O)NC(=O)[C@H](CCC(=O)O)NC(=O)[C@H](CC(C)C)NC(=O)[C@H](Cc1ccc(O)cc1)NC(=O)[C@H](CCCCN)NC(=O)[C@H](CO)NC(=O)[C@@H](NC(=O)[C@H](CC(=O)O)NC(=O)[C@H](CO)NC(=O)[C@@H](NC(=O)[C@H](Cc1ccccc1)NC(=O)[C@@H](NC(=O)CNC(=O)[C@H](Cc1c[nH]cn1)NC(=O)C1(NC(=O)CCc2c[nH]cn2)CCC1)[C@@H](C)O)[C@@H](C)O)C(C)C)C(=O)N[C@@H](C)C(=O)N[C@@H](Cc1c[nH]c2ccccc12)C(=O)N[C@@H](CC(C)C)C(=O)N[C@@H](CC(C)C)C(=O)N[C@@H](CCCCNC(=O)CNC(=O)[C@H](CO)NC(=O)[C@H](CCC(=O)O)NC(=O)CNC(=O)[C@H](CO)NC(=O)CC[C@H](NC(=O)CC[C@H](NC(=O)CCCCCCCCCCCCCCCCC(=O)O)C(=O)O)C(=O)O)C(=O)N[C@H](C(N)=O)[C@@H](C)O [Example 9, N^ε34-[2-[[(2S)-2-[[(2S)-4-carboxy-2-[[2-[[(2S)-2-[[(4S)-4-carboxy-4-[[(4S)-4-carboxy-4-(17-carboxyheptadecanoylamino)butanoyl]amino]butanoyl]amino]-3-hydroxypropanoyl]amino]acetyl]amino]butanoyl]amino]-3-hydroxypropanoyl]amino]acetyl]-[Imp7,Acb8,His9,Lys18,Glu22,Arg26,Leu33,Thr35]-GLP-1-(7-35)-peptide amide] (I: Desaminohistidyl-[Ac4c]HGTFTSDVSKYLEEQAAREFIAWLLKT-NH2 / II: {C18 diacid-γGlu-γGlu}-SGESG; amide I:27-II:C)	100
CC[C@H](C)[C@H](NC(=O)[C@H](Cc1ccccc1)NC(=O)[C@H](CCC(=O)O)NC(=O)[C@H](CCCNC(=N)N)NC(=O)[C@H](C)NC(=O)[C@H](C)NC(=O)[C@H](CCCNC(=N)N)NC(=O)CNC(=O)[C@H](CCC(=O)O)NC(=O)[C@H](CC(C)C)NC(=O)[C@H](Cc1ccc(O)cc1)NC(=O)[C@H](CCCNC(=N)N)NC(=O)[C@H](CO)NC(=O)[C@@H](NC(=O)[C@H](CC(=O)O)NC(=O)[C@H](CO)NC(=O)[C@@H](NC(=O)[C@H](Cc1ccccc1)NC(=O)[C@@H](NC(=O)CNC(=O)[C@H](Cc1c[nH]cn1)NC(=O)C(C)(C)NC(=O)CCc1c[nH]cn1)[C@@H](C)O)[C@@H](C)O)C(C)C)C(=O)N[C@@H](C)C(=O)N[C@@H](Cc1c[nH]c2ccccc12)C(=O)N[C@@H](CC(C)C)C(=O)N[C@@H](CC(C)C)C(=O)N[C@@H](CCCCNC(=O)CC[C@H](NC(=O)CC[C@H](NC(=O)COCCOCCNC(=O)CC[C@H](NC(=O)CC[C@H](NC(=O)CCCCCCCCCCCCCCCCC(=O)O)C(=O)O)C(=O)O)C(=O)O)C(=O)O)C(=O)NCC(=O)N[C@@H](C)C(=O)NCC(=O)O [Example 35, N^ε34-[(4S)-4-carboxy-4-[[(4S)-4-carboxy-4-[[2-[2-[2-[[(4S)-4-carboxy-4-[[(4S)-4-carboxy-4-(17-carboxyheptadecanoylamino)butanoyl]amino]butanoyl]amino]ethoxy]ethoxy]acetyl]amino]butanoyl]amino]butanoyl]-[Imp7,Aib8,His9,Arg18,Arg23,Arg26,Leu33,Ala36]-GLP-1-(7-37)-peptide] (Desaminohistidyl-[Aib]HGTFTSDVSRYLEGRAAREFIAWLLK([γGlu-γGlu-AEEA-γGlu-γGlu-C18 diacid])GAG-OH)	1000
CC[C@H](C)[C@H](NC(=O)[C@H](Cc1ccccc1)NC(=O)[C@H](CCC(=O)O)NC(=O)[C@H](CCCNC(=N)N)NC(=O)[C@H](C)NC(=O)[C@H](C)NC(=O)[C@H](CCC(N)=O)NC(=O)[C@H](CCC(=O)O)NC(=O)[C@H](CCC(=O)O)NC(=O)[C@H](CC(C)C)NC(=O)[C@H](Cc1ccc(O)cc1)NC(=O)[C@H](CCCCN)NC(=O)[C@H](CO)NC(=O)[C@@H](NC(=O)[C@H](CC(=O)O)NC(=O)[C@H](CO)NC(=O)[C@@H](NC(=O)[C@H](Cc1ccccc1)NC(=O)[C@@H](NC(=O)CNC(=O)[C@H](Cc1c[nH]cn1)NC(=O)C(C)(C)NC(=O)CCc1c[nH]cn1)[C@@H](C)O)[C@@H](C)O)C(C)C)C(=O)N[C@@H](C)C(=O)N[C@@H](Cc1c[nH]c2ccccc12)C(=O)N[C@@H](CC(C)C)C(=O)N[C@@H](CC(C)C)C(=O)N[C@@H](CCCCNC(=O)COCCOCCNC(=O)COCCOCCNC(=O)CC[C@H](NC(=O)CCCCCCCCCCCCCCCCC(=O)O)C(=O)O)C(=O)N[C@H](C(N)=O)[C@@H](C)O [Example 12, N^ε34-[2-[2-[2-[[2-[2-[2-[[(4S)-4-carboxy-4-(17-carboxyheptadecanoylamino)butanoyl]amino]ethoxy]ethoxy]acetyl]amino]ethoxy]ethoxy]acetyl]-[Imp7,Aib8,His9,Lys18,Glu22,Arg26,Leu33,Thr35]-GLP-1-(7-35)-peptide amide] (Desaminohistidyl-[Aib]HGTFTSDVSKYLEEQAAREFIAWLLK([AEEA-AEEA-γGlu-C18 diacid])T-NH2)	700
